The values that follow come from patent publication US20250177359A1, “COMPOUNDS FOR USE IN THE TREATMENT OF CANCER AND INFLAMMATORY CONDITIONS” (priority 2022, published 2025).

The target of the test is T1, TNKS1 (Homo sapiens, UniProt O95271).
T1 sequence (O95271 1-1327): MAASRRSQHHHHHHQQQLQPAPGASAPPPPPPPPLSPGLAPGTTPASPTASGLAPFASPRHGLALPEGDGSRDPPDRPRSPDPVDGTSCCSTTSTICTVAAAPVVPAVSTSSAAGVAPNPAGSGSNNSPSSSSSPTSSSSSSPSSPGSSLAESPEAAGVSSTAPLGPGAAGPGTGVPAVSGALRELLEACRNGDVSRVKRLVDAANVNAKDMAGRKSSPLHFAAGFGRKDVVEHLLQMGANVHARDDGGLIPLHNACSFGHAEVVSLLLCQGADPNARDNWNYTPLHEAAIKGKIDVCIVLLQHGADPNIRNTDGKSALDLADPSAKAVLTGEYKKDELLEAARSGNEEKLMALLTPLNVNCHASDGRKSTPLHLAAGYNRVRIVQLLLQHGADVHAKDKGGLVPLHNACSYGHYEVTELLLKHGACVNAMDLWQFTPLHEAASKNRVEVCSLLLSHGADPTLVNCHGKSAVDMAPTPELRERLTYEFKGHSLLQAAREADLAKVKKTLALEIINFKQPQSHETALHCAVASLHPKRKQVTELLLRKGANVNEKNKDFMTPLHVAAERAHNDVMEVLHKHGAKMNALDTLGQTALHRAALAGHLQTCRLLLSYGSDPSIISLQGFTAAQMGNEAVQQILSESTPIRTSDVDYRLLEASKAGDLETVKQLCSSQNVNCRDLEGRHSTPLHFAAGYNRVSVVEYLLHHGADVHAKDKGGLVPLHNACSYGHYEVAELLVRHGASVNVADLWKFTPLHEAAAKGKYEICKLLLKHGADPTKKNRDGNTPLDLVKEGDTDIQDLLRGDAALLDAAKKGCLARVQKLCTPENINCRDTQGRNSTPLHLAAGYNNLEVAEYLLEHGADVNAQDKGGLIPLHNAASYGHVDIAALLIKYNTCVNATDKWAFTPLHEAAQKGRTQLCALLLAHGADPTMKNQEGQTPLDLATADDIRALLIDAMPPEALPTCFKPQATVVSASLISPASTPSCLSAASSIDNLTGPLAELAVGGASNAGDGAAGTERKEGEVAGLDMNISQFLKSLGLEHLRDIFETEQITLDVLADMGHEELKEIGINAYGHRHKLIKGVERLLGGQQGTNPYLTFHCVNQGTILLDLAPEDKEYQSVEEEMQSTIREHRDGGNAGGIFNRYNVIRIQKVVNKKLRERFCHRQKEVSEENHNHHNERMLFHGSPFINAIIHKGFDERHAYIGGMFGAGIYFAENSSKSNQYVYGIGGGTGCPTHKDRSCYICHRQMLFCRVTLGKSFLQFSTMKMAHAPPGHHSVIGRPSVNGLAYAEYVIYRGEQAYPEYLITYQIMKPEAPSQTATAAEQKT
Briefly: Activity assay measuring NAD+ consumption, TNKS1. Format: biochemical. The following applies: Table 4. The method, then: All starting materials, reagents, and solvents were purchased from common commercial suppliers and were used as such without further purification. […] Organic solutions were dried over anhydrous Na2SO4 and concentrated with rotary evaporator at low pressure. All the reactions were routinely checked by thin-layer chromatography (TLC) on silica gel 60F254 (Merck) and visualized by using UV and iodine. Flash chromatography separations were carried out on Merck silica gel 60 (mesh 230-400) or by using automated Buchi Reveleris X2-UV with column FP Ecoflex Si 12 g. Yields were of purified products and were not optimized. ^1HNMR spectra were recorded at 400 MHz (Bruker Avance DRX-400), while ^13CNMR spectra were recorded at 101 MHz (Bruker Avance DRX-400). Chemical shifts are given in ppm (δ) relative to TMS. […] Mating constant (J) are reported in Hz. The purity of the tested compounds was evaluated by HPLC analysis using Jasco LC-4000 instrument equipped with a UV-Visible Diode Array Jasco-MD4015 (Jasco Corporation, Tokyo, Japan), and XTerra MS C18 column, 5 μm×4.6 mm×150 mm (Waters Corporation, Massachusetts, USA). Chromatograms were analyzed by ChromNAV2.0 Chromatography Data System software. […] The peak retention time (ret. time) is given in minutes. […] 1-Isobutoxy-4-methoxy-2-nitrobenzene (113). Isobutyl alcohol (0.6 mL, 6.43 mmol) was added, under nitrogen atmosphere at 0° C., to a suspension of NaH (0.26 g, 6.43 mmol) in dry DMF. After 15 minutes, 1-fluoro-4-methoxy-2-nitrobenzene 112 (1 g, 5.84 mmol) was also added and the reaction mixture was stirred at 80° C. for 4 h. […] (2-Isobutoxy-5-methoxyphenyl)amine (114). Zn (1.57 g, 24 mmol) and NH4C1 (2.45 g, 40 mmol) were added to a solution of 113 (0.46 g, 2 mmol) in acetone/H2O (50 mL, ratio 5:1). The reaction mixture was stirred at 60° C. for 3 h and, then, it was filtered over celite. […] N-(2,5-diethoxyphenyl)thiourea (55). […] N-(2-isobutoxy-5-methoxyphenyl)thiourea (115). […] A solution of Br2 (0.2 mL, 3.3 mmol) in CHCl3 (5 mL) was slowly added to a suspension of 45 (0.6 g, 3.3 mmol) in CHCl3 (13 mL), at 0° C. […]

In turn, `Oc1ccc2c(c1)sc1nncn12` [Compound 10] gave an IC50 of 1.6 µM.

As for `Cc1ccc2c(c1)sc1nnc(N)n12` [Compound 22, 7-Methyl[1,2,4]triazolo[3,4-b][1,3]benzothiazol-3-amine], the IC50 came to 2.1 µM. This IC50 and that of the compound before are within 1.5-fold of each other.

As for `COc1ccc(OC)c2c1sc1nnc(N)n12` [Compound 28, 5,8-Dimethoxy[1,2,4]triazolo[3,4-b][1,3]benzothiazol-3-amine], the IC50 was determined as 5.4 µM.
